Results published in patent publication US20070026051A1, “Use of tripolidine in providing refreshedness on waking” (priority 2003, published 2007).

What was measured:
[1] = test system: patients with temporary sleep disturbance; assay: Clinical trial: wrist actimetry (SDI, time to sleep onset); type: in vivo, human; set-up: SDI compared to placebo: dose or concentration left out as unconfirmed
Description: The efficacy of triprolidine in enabling a patient to feel refreshed or alert upon waking after taking triprolidine prior to sleeptime was investigated using patients with a history of sleep disorders and utilising triprolidine prepared in accordance with example 1.
(§1) The study herein utilised the following determination methods:— • (a) Karolinska scale as defined in: Int. J. Neuroscience 52 29-37 (1990); and—validation: Sleep 17 (3) 236-41 (1994) • (b) Loughborough Sleep log as defined in: Sleep 17 (2) 146-159 (1994); and • Sleep 18 (2) 127-134 (1995) • (c) Actimetry—AW4 actimeters (Cambridge Neurotechnology) were worn continuously throughout the study. A button was pressed at night when the subject desired to go to sleep and again in the morning upon waking. The results of the actimeter study were analysed in the manner defined by Horne et al (Sleep, 17(2); 146-159). SDI % was calculated as follows:— SDI=Number of 30 second epochs with movement×100 • Number of 30 second epochs from total time spent in bed This is the measure of: • 1. The length of time it took to fall asleep • 2. Any awakenings throughout the sleep period • Expressed as a % of total time spent in bed. Study Objectives • To evaluate the effects of two doses of triprolidine compared with placebo. Study Design […]
Male and Female candidates aged 18 years and above were recruited to one of five research centres by means of local advertising. […]
In the trial, patients were tested during a seven day period and the results have been analysed for a mean of three days in the middle of this period. […]
(§2) Generally the treatment groups were well balanced in terms of the demographic data. Unless otherwise mentioned all group data was analysed using ANOVA. In two cases, namely, how the patient felt 15 minutes after awakening in the Loughborough Sleep Log and the Karolinska Sleepiness Scale at 20 minutes, the two variables were analysed using ANCOVA by including the weekend and the mean of Friday/Saturday/Sunday night as a covariate. […]

volunteers = details: single doses 10 mg or 20 mg sustained release at bedtime; cited from earlier work
[2] = test system: patients with temporary sleep disturbance; assay: Clinical trial: Karolinska 9-point sleepiness scale; type: in vivo, human
Description: The study herein utilised the following determination methods:— • (a) Karolinska scale as defined in: Int. J. Neuroscience 52 29-37 (1990); and—validation: Sleep 17 (3) 236-41 (1994) • (b) Loughborough Sleep log as defined in: Sleep 17 (2) 146-159 (1994); and • Sleep 18 (2) 127-134 (1995) • (c) Actimetry—AW4 actimeters (Cambridge Neurotechnology) were worn continuously throughout the study. A button was pressed at night when the subject desired to go to sleep and again in the morning upon waking. The results of the actimeter study were analysed in the manner defined by Horne et al (Sleep, 17(2); 146-159). SDI % was calculated as follows:— SDI=Number of 30 second epochs with movement×100 • Number of 30 second epochs from total time spent in bed This is the measure of: • 1. The length of time it took to fall asleep • 2. Any awakenings throughout the sleep period • Expressed as a % of total time spent in bed. Study Objectives • To evaluate the effects of two doses of triprolidine compared with placebo. Study Design
A multiple-dose, placebo-controlled, parallel-group, double-blind, randomised study investigating the effects of 2.5 mg and 5 mg triprolidine in patients with temporary sleep disturbance.
Male and Female candidates aged 18 years and above were recruited to one of five research centres by means of local advertising. Candidates were screened by means of a telephone questionnaire and selected candidates invited for interview at the research centre. Key inclusion criteria used to select candidates for the study were: • A record of poor sleep at least 2 nights per week • A record of poor sleep for at least 1 week but not more than 3 months • Sleep disturbance not caused by underlying disease • No excess use of alcohol or drugs • Sleep disturbance affected daytime functioning
The candidates came to the research centre on Thursday or Friday and were fitted with a wrist actimeter (AW4 from Cambridge Technology) to establish a baseline measure for SDI and were provided with diary cards to record subjective assessments for the Loughborough Sleep Log and the Karolinska Sleepiness Scale. They returned to the investigational site on the Monday and were issued with the study compositions (2.5 mg triprolidine, 5 mg triprolidine or placebo). […]
as §2

[3] = test system: patients with temporary sleep disturbance; assay: Clinical trial: Loughborough sleep log (subjective); type: in vivo, human; set-up: dose or concentration left out as unconfirmed; details: mean of the 3 nights, p<0.05
Description: as §1
Candidates were required to complete a questionnaire 15 minutes after awaking on the feeling of refreshedness assessed on a 5-point scale, the Loughborough sleep log.
Generally the treatment groups were well balanced in terms of the demographic data. Unless otherwise mentioned all group data was analysed using ANOVA. […]

[4] = both treatments (2.5 mg and 5 mg), every treatment night
[5] = 2.5 mg triprolidine, mean of the 3 nights

Cc1ccc(/C(=C\CN2CCCC2)c2ccccn2)cc1 [triprolidine]
SDI as compared with placebo [1, 4]: reduced | sleep latency onset as compared with placebo [1, 4]: reduced | SDI compared to placebo ([1]; triprolidine, mean of the 3 nights, p<0.01): significantly reduced | sleep onset latency (time required to fall asleep) compared with placebo (volunteers): did not significantly alter | total sleep time compared with placebo (volunteers): no effect | wakefulness during sleep compared with placebo (volunteers): no effect | percentage of people feeling alert, very alert or extremely alert on waking vs placebo (Karolinska log) [2, 5]: greater percentage | percentage of people feeling sleepy, some effort, or very sleepy, great effort to keep awake on waking vs placebo (Karolinska log) [2, 5]: lower percentage | residual hangover effects/morning grogginess [2, 5]: no evidence of residual hangover effects/morning grogginess | daytime sleepiness ([2]; either dose of triprolidine): lack of daytime sleepiness | feeling of refreshedness 15 minutes after waking vs placebo (Loughborough sleep log) [3]: more refreshed
